# Reference: patent US9120793B2, “Triazolo-pyridine compound” (Eli Lilly and Company, priority 2013, dated 2015)
# Columns and labels:
# [1] = system: Zucker fa/fa rats; test: Chronic oral glucose tolerance test (OGTT); assay type: in vivo, rat
# Protocol: OGTTs are performed in Zucker fa/fa rats, a rodent model of insulin resistance, after 1 and 21 days of orally administered exemplified compound at 1.0, 3.0 and 10 mg/kg. A standard GPR-40 agonist at 1 mg/kg serves as the positive control. OGTTs are performed one hour post compound administration with blood samples taken for determination of glucose and insulin levels at 10, 20, 40, 60, and 120 minutes post glucose administration. […] Weight and food consumption are not altered due to any treatment during the study.
# [2] = target: T1, hGPR-40 (hFFAR1) (Homo sapiens, UniProt O14842); test: Human beta-arrestin agonist assay with 1% FBS; assay type: cell-based
# T1 construct: host or cells: HEK293
# From the text: (§1) Human embryonic kidney (hEK293)-hFFAR1 cells are purchased from DiscoveRx™. Human osteosarcoma (U2OS) cells expressing mFFAR1 are developed by DiscoveRX™. These cells co-express the Prolink™ (PK)-tagged GPR-40 and the Enzyme Acceptor™ (EA)-tagged beta-arrestin fusion proteins. If activation of the GPR-40 stimulates beta-arrestin recruitment, it would force complementation of the beta galactosidase (B-gal) enzyme fragments, forming a B-gal enzyme that generates a chemiluminescent signal using the DiscoveRx PathHunter™ detection kit. Cells are incubated overnight at 5,000 cells/well in 384 well plates in culture media containing 1% FBS (fetal bovine serum). Serial diluted compound in DMSO (2× dilutions to generate 20 concentrations) are step down diluted in culture media containing 1% FBS (fetal bovine serum) and added to cells with a final top concentration starting of 100 μM. After addition of compound, cells are incubated for 90 min at 37° C. in 5% CO2 incubator, and DiscoveRX™ kit detection reagents are added. Measurement of the chemiluminescent signal is ascertained with the Envision™ reader, after a 1-hour incubation at room temperature. Data are fit to a 4 parameter-fit logistics to determine EC50 values, % activity is measured versus maximum response to an internal standard GPR-40 agonist at 1 μM.
# [3] = target: T2, mGPR-40 (mFFAR1) (Mus musculus, UniProt Q76JU9); test: Mouse beta-arrestin agonist assay with 1% FBS; assay type: cell-based
# T2 construct: host or cells: U2OS
# From the text: as §1
# [4] = target: T3, PPARγ (Homo sapiens, UniProt P37231); test: PPARγ reporter (CTF)/functional assay in CV1 cells; assay type: cell-based
# T3 construct: expressed in transfected cells; host or cells: CV1 (African green monkey kidney)
# T3 sequence (P37231 1-505): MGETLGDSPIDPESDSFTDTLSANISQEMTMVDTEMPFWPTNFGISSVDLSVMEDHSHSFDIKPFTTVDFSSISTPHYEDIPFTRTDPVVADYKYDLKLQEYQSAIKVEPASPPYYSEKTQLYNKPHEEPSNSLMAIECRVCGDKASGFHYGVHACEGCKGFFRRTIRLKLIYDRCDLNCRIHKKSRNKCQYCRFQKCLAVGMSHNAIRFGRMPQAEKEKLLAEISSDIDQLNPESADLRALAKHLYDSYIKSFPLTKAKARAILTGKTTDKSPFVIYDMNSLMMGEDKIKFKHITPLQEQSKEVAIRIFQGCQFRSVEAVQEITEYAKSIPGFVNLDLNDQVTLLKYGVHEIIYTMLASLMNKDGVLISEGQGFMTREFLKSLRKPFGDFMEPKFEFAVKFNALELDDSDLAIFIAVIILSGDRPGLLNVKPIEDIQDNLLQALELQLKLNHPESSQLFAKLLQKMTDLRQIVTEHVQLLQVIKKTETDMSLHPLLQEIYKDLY
# T3 sequence (P19793 1-462 partner): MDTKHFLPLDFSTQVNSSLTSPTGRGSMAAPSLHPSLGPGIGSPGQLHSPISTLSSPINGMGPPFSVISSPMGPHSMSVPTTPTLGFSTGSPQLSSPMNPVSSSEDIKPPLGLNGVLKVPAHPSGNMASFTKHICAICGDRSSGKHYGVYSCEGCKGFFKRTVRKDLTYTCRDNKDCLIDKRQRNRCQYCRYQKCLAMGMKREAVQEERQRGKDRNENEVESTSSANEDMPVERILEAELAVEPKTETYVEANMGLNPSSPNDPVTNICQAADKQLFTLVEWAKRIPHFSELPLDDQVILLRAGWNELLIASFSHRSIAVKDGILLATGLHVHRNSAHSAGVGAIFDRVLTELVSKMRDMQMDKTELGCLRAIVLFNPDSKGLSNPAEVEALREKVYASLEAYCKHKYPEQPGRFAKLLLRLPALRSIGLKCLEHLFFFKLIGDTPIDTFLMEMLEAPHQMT
# From the text: Because GPR-40 is known to be activated by ligands to PPARγ, exemplified compounds are examined in PPARα, PPARδ, and PPARγ reporter assays to determine the selectivity of an exemplified compound. CV1 cells, which are derived from the renal tissue of an African green monkey, are transfected with various receptor and reporter plasmids using Fugene. For the PPARα and PPARδ assays, a reporter plasmid containing five tandem copies of the yeast transcription protein Gal4 response element, cloned upstream of a firefly luciferase gene driven by the major late promoter of adenovirus, is transfected together with a Simian Virus 40 (SV40) driven plasmid constitutively expressing a hybrid protein containing the Gal4 DNA binding domain (DBD), and either the PPARα or PPARδ ligand binding domain. For the PPARγ assay, plasmids encoding PPARγ and RXRα, both driven by a cytomegalovirus (CMV) promoter are transfected together with a plasmid containing luciferase reporter cDNA driven by the TK promoter and a receptor response element (2×PPRE). […] After 24 hours incubation with compound, cells are lysed and luciferase activity is determined as a measure of receptor activation by luminescence. […] The maximum percent stimulation is determined versus maximum stimulation obtained with 10 μM of an appropriate PPAR agonist reference compound. […]
# [5] = versus internal standard GPR-40 agonist at 1 μM
# T1 sequence (O14842 whole entry): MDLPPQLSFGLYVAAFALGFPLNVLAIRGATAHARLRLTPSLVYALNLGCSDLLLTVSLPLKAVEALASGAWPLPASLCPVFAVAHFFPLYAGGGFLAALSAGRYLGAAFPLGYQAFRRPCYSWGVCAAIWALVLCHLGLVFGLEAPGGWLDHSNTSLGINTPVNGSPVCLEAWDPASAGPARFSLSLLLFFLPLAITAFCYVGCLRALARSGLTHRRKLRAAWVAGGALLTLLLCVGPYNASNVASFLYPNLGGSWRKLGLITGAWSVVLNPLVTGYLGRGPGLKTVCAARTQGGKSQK
# T1 sequence (P32121 whole entry partner): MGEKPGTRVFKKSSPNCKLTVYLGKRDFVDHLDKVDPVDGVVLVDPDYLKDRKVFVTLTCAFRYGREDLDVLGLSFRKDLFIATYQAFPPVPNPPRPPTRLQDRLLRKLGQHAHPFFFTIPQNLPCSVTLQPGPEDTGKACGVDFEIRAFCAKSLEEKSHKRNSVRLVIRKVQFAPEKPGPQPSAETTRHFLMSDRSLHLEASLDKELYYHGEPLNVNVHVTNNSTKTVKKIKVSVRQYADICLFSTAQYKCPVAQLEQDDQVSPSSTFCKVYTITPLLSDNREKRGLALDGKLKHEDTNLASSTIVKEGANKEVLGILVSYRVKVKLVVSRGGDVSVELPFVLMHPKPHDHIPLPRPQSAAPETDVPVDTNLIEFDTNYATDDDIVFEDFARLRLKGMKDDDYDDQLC
# T2 sequence (Q76JU9 whole entry): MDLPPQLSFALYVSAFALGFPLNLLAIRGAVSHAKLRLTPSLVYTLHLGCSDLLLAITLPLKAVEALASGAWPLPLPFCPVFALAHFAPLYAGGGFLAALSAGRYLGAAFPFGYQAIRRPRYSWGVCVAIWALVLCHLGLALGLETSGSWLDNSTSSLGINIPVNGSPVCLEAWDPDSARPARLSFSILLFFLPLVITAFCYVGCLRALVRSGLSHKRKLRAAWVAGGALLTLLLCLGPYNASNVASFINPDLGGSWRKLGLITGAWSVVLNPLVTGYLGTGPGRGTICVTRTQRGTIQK
# T2 sequence (P32121 whole entry partner): as the sequence (P32121 whole entry partner) above
compound,measurement,setting,value
"CC#C[C@@H](CC(=O)O)c1ccc(OCc2ccc3nc(-c4c(C)cccc4C)nn3c2)cc1 [Example 1, (3S)-3-[4-[[2-(2,6-Dimethylphenyl)-[1,2,4]triazolo[1,5-a]pyridin-6-yl]methoxy]phenyl]hex-4-ynoic acid]",Weight and food consumption,"[1]; 21 days oral administration, any treatment",not altered
same,ED90 for glucose lowering,"[1]; day 1, oral",4.1 mg/kg
same,ED90 for glucose lowering,"[1]; day 21, oral",5.0 mg/kg
same,AUCs for glucose lowering,"[1]; days 1 and 21, oral 1, 3 and 10 mg/kg, p<0.05",statistically significant
same,Insulin AUCs during the OGTTs,"[1]; oral 1, 3 and 10 mg/kg, values not statistically significant",dose dependent elevation
same,EC50,"[2]; hEK293-hFFAR1 cells, 1% FBS, 90 min, read-out: hGPR-40 b-arrestin EC50",0.0448 µM
same,hGPR-40 b-arrestin % stimulation max (FA),[2]; [5],128%
same,EC50,"[3]; U2OS cells expressing mFFAR1, 1% FBS, 90 min, read-out: mGPR-40 b-arrestin EC50",0.00363 µM
same,mGPR-40 b-arrestin % stimulation max (FA),[3]; [5],153%
same,EC50,"[4]; CV1 cells, luciferase reporter, 24 hours",2.6 µM
same,Emax,"[4]; CV-1, versus 10 μM PPAR agonist reference compound, <20% considered negative, read-out: % efficacy in PPARγ CTF assay",17%
